Test results published in patent US8729128B2, “Lipoxin A4 protection for cornea endothelial cells” (Board of Supervisors of Louisiana State University And …, priority 2007, dated 2014).

Legend:
Assay type in all cases: cell-based
[1] = system: Rabbit corneal endothelial cells (RCEC); test: Proliferation of rabbit corneal endothelial cells (Ki-67 antibody staining); conditions: rabbit CEC, 10 nM to 200 nM, DMEM/F12 0.5% FBS, 24 hours
Description: (§1) Rabbit corneal endothelial cells (RCEC) and human corneal endothelial cells along with the Decemet's membrane were isolated from normal eyes (National Disease Research Interchange (NDRI), Philadelphia, Pa.), and the cells were suspended in Dulbecco's Modified Eagle Medium/Nutrient Mixture F-12 (DMEM/F12; GIBCO®, Grand Island, N.Y.) supplemented with 15% fetal bovine serum (FBS; GIBCO®), and seeded in 12-well plates. Cell phenotype was identified by using the endothelial cell marker anti-ZO-1 antibody (anti-zonula occludins-1 antibody) (Zymed Laboratories, Inc., San Francisco, Calif.). The localization of the lipoxin A4 (LXA4) receptor was detected with the polyclonal antibody FPRL1 (formyl peptide receptor-like 1; sc-13193, Santa Cruz Biotechnology, Inc., Santa Cruz, Calif.) (FIG. 1). […] The same was found with human endothelial cells. (Data not shown) This is the first time such receptor has been reported in cornea endothelial cells.
Proliferation of cornea endothelial cells was evaluated with anti-Ki-67 antibody (Zymed Laboratories, Inc., San Francisco, Calif.). Rabbit CEC cells were grown at 60-70% confluence, starved for 24 hours, and then treated with 15-epimer-lipoxin A4 (Calbiochem, Madison, Wis.) at different concentrations from 10 nM to 200 nM in DMEM/F12 containing 0.5% FBS for 24 hours. […] In addition, a similar experiment was conducted using lipoxin A4.

[2] = system: Rabbit corneal endothelial cells (RCEC); test: In vitro wound closure in confluent rabbit corneal endothelial cells; conditions: 10 nM and 100 nM, 24 hours
Description: as §1
To measure in vitro wound closure, 12-day cultures of completely confluent RCEC in 12-well plates were wounded by linear scraping with a sterile plastic tip in the center of the well. Cells were incubated for 24 hours in DMEM/F12 with or without 15-epimer lipoxin A4 at 10 nM and 100 nM concentrations. The width of wound was calculated using Metavue Image software. […]

[3] = system: human corneal endothelial cells; test: Proliferation of cultured human corneal endothelial cells (Ki-67 immunofluorescence); conditions: human CEC, second passage, 100 nM, 24 hours
Description: (§2) Human eyeballs were obtained from NDRI (National Disease Research Interchange, Philadelphia, Pa.) and shipped to the laboratory on ice. The corneas were excised along the sclerocorneal rim, and the endothelia together with the Decemet's membrane were removed with tooth-free fine forceps under a dissection microscope. Pieces of the endothelia were seeded in DMEM/F12 (GIBCO®, Grand Island, N.Y.) supplemented with 15% FBS in 12-well plates. Cell phenotypes were identified and confirmed by using the endothelial cell marker anti-ZO-1 antibody (Zymed Laboratories, Inc., San Francisco, Calif.). […] This method of cell culture was used to establish cell cultures from several human eyeballs.
A secondary passage of human corneal endothelial cells derived from a donor was obtained as described above in Example 4. The cells were grown to 70% confluence in 24-well plate, and then starved for 24 hours. The starved cells were then incubated in DMEM/F12 containing 0.5% FBS with or without 15-epimer LxA4 (100 nM; from Calbiochem, Madison, Wis.) for 24 hours. […] Based on the rabbit studies above, it is believed that lipoxin A4 and its other analogs would show similar results as the 15-epimer lipoxin A4 used in these experiments.

[4] = system: human corneal endothelial cells; test: Cell migration in a wound of human corneal endothelial cells; conditions: human CEC, 100 nM, at 48 hours, p<0.05
Description: as §2
A secondary passage of human corneal endothelial cells derived from a donor was obtained as described above in Example 4. The cells were grown to 70% confluence in 24-well plate, and then starved for 24 hours. […] Wound healing was determined by phase contrast images collected by a camera attached to the microscope, and the result shown in FIG. 6B. The width of wound was calculated using Metavue Image software. The degree of cell migration was quantified by measuring the width of the wounded area at 24 and 48 hours, and the data shown in FIG. 6A. […]

SMILES | number of cells with Ki-67 staining (proliferation) [1] | wound healing (width of wound) [2] | cell proliferation (percentage of Ki-67-positive cells versus total cells) [3] | cell migration (width of the wounded area) [4]
CCCCC[C@@H](O)/C=C/C=C\C=C\C=C\[C@@H](O)[C@@H](O)CCCC(=O)O [15-epimer lipoxin A4] | increases with the concentration | promoted wound healing | significant increase | significant increase in cell migration
CCCCC[C@H](O)/C=C/C=C\C=C\C=C\[C@@H](O)[C@@H](O)CCCC(=O)O [lipoxin A4] | the same, both qualitatively and quantitatively | the same, both qualitatively and quantitatively | – | –
